Data as given in patent US8796217B2, “Use of transesterified olive oil in the cosmetic field” (Hallstar Italia S.R.L., priority 2008, dated 2014).

Key:
[1] = tested on: Reconstructed Human Epidermis (RHE) keratinocytes; assay: MTT assay of keratinocyte vitality on the RHE; format: cell-based; conditions: MTT assay on RHE at 24 hour instant
Protocol: Keratinocyte vitality was ascertained using the MTT assay: MTT salt (3-(4,5-dimetil-tiaol-2-il)-2,5 diphenyltetrazolium bromide) may be reduced through the mitochondrial enzyme succinate-dehydrogenase found in living cells. The reduction product, formazan crystals, may be quantified by optic density at […] and is proportional to the number of living cells. The MTT assay was performed on the RHE at the 24 hour instant.

[2] = Transepidermal water loss (TEWL) after topical application in volunteers; format: in vivo, human; conditions: 5% ingredient applied topically, ten volunteers
Excerpt: The clinical efficiency of bio-compatible liquid crystals generated by cetearyl-olivate, sorbitan-olivate was clinically verified. Firstly, its skin biocompatibility was verified in a study on its effect on transepidermal water loss (TEWL) with respect to other lipidic compositions. TEWL is a convalidated method for assessing the skin permeability barrier function (Fluhr, 2006). Ten volunteers have applied topically identical concentrations (5%) of the following ingredients: cetearyl-olivate, sorbitan-olivate; cetearyl alcohol, cetearyl-glucoside and poliglyceril-3 methylglucose distearate. The results—see FIG. 4—have shown that the application of cetearyl-olivate, sorbitan-olivate reduced the increase of TEWL by 29% over control formulae (FIG. 2).

Compound	Cell vitality (%) [1]	induced TEWL / water loss following application [2]
Cn1c(=O)c2c(ncn2C)n(C)c1=O [Control (pure caffeine), caffeine]	100%	–
poliglyceril-3 methylglucose distearate	–	activate excessive water loss following application
